Results from patent publication US8846951B2 (AbbVie Inc., priority 2009, dated 2014).
Read-outs that look alike come from different tables or passages of the source.

Experiments:
[1] = target: T1, 5HT2B receptors (Homo sapiens, UniProt P41595); assay: Human 5-HT2B functional high throughput screening assay in CHO-K1 cells (calcium flux); assay type: cell-based; conditions: for EC50: CHO-K1 cells, calcium flux
T1 construct: expressed in transfected cells; host or cells: CHO-K1 cells
Outline: (§1)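 Serum-starved CHO-K1 cells carrying the receptor; Ca4 dye, 60 min RT. Test compound added after a 10 s baseline, fluorescence followed for 3 min. EC50 from 4-parameter fit; Emax given as % of serotonin effect.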

[2] = target: T2, 5HT2C receptors (Homo sapiens, UniProt P28335); assay: Human 5-HT2C functional high throughput screening assay in CHO-K1 cells (calcium flux); assay type: cell-based; design: expressed in transfected cells; host or cells: CHO-K1 cells; conditions: for EC50: CHO-K1 cells, calcium flux; for Emax: CHO-K1, 5-HT2C, maximum functional response as percentage relative to the effect of serotonin
T2 sequence (P28335 33-458): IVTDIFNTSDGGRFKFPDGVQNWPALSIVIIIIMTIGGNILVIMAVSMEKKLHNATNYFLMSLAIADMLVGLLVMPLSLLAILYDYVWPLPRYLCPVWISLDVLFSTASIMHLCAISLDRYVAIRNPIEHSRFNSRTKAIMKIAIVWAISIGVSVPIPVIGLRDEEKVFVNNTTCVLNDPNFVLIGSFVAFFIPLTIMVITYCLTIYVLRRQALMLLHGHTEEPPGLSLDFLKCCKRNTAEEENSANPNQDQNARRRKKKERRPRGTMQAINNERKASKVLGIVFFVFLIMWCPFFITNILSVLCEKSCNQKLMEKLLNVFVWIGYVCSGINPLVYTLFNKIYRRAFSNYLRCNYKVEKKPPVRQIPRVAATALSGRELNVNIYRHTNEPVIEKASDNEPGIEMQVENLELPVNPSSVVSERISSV
Outline: as §1

[3] = 5-HT2B agonist activity, read-out: EC50
[4] = 5-HT2B, maximum functional response as percentage relative to the effect of serotonin
[5] = 5-HT2C agonist activity, read-out: EC50
[6] = CHO-K1, 5-HT2B, maximum functional response as percentage relative to the effect of serotonin, read-out: Emax

T1 sequence (P41595 whole entry): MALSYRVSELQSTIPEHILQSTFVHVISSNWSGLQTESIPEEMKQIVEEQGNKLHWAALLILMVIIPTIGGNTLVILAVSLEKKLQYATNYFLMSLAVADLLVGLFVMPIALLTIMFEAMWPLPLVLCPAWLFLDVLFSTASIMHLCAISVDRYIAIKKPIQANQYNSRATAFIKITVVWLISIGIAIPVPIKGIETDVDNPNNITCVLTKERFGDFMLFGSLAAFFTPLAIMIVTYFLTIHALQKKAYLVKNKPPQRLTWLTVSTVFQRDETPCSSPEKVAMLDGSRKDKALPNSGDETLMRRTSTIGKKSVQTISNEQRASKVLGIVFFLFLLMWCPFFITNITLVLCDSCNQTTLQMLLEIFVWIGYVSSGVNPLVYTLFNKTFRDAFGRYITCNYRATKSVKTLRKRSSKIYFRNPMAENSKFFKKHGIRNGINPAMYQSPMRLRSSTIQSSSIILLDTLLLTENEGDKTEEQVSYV

Structure (SMILES)	EC50 [1, 3] [nM]	Emax [1, 4]	EC50 [2, 5] [nM]	Emax ([2]; read-out: Emax) [%]	Emax [1, 6] [%]	Emax ([1]; CHO-K1) [%]	EC50 ([1]; EC50, 5-HT2B agonist activity) [nM]	Emax [2] [%]	EC50 ([2]; EC50, 5-HT2C agonist activity) [nM]
CC(C)(C)c1ccc(S(=O)(=O)N2Cc3cccnc3[C@@H]3CNC[C@H]3C2)cc1 (relative stereo) [Example 344, Trans-6-[(4-tert-butylphenyl)sulfonyl]-5,6,7,7a,8,9,10,10a-octahydropyrido[3,2-c]pyrrolo[3,4-e]azepine]	> 10000	inactive	90	85	–	–	–	–	–
O=S(=O)(c1cccc(C(F)(F)F)c1)N1Cc2cccnc2[C@@H]2CNC[C@H]2C1 (relative stereo) [Example 345, Trans-6-{[3-(trifluoromethyl)phenyl]sulfonyl}-5,6,7,7a,8,9,10,10a-octahydropyrido[3,2-c]pyrrolo[3,4-e]azepine]	200	–	400	80	90	–	–	–	–
COc1ccc(S(=O)(=O)N2Cc3cccnc3[C@@H]3CNC[C@H]3C2)cc1 (relative stereo) [Example 346, Trans-6-[(4-methoxyphenyl)sulfonyl]-5,6,7,7a,8,9,10,10a-octahydropyrido[3,2-c]pyrrolo[3,4-e]azepine]	> 10000	inactive	100	85	–	–	–	–	–
O=S(=O)(c1ccc(C(F)(F)F)cc1)N1Cc2cccnc2[C@@H]2CNC[C@H]2C1 (relative stereo) [Example 347, Trans-6-{[4-(trifluoromethyl)phenyl]sulfonyl}-5,6,7,7a,8,9,10,10a-octahydropyrido[3,2-c]pyrrolo[3,4-e]azepine]	> 10000	inactive	90	90	–	–	–	–	–
Cc1cccc(S(=O)(=O)N2Cc3cccnc3[C@@H]3CNC[C@H]3C2)c1 (relative stereo) [Example 348, Trans-6-[(3-methylphenyl)sulfonyl]-5,6,7,7a,8,9,10,10a-octahydropyrido[3,2-c]pyrrolo[3,4-e]azepine]	–	–	–	–	–	50	800	85	70
O=S(=O)(c1ccc(OC(F)(F)F)cc1)N1Cc2cccnc2[C@@H]2CNC[C@H]2C1 (relative stereo) [Example 349, Trans-6-{[4-(trifluoromethoxy)phenyl]sulfonyl}-5,6,7,7a,8,9,10,10a-octahydropyrido[3,2-c]pyrrolo[3,4-e]azepine]	> 10000	inactive	200	90	–	–	–	–	–
CS(=O)(=O)c1cccc(-c2cccc3c2OCC[C@H]2CNC[C@H]32)c1 (relative stereo) [Example 350, Trans-7-[3-(methylsulfonyl)phenyl]-2,3,3a,4,5,10b-hexahydro-1H-[1]benzoxepino[4,5-c]pyrrole]	> 10000	inactive	1000	75	–	–	–	–	–
CC(=O)c1cccc(-c2cccc3c2OCC[C@H]2CNC[C@H]32)c1 (relative stereo) [Example 351, 1-{3-[Trans-2,3,3a,4,5,10b-hexahydro-1H-[1]benzoxepino[4,5-c]pyrrol-7-yl]phenyl}ethanone]	> 10000	inactive	90	90	–	–	–	–	–
COc1ccccc1S(=O)(=O)N1Cc2cccnc2[C@@H]2CNC[C@H]2C1 (relative stereo) [Example 354, Trans-6-[(2-methoxyphenyl)sulfonyl]-5,6,7,7a,8,9,10,10a-octahydropyrido[3,2-c]pyrrolo[3,4-e]azepine]	200	–	300	80	95	–	–	–	–
N#Cc1ccccc1S(=O)(=O)N1Cc2cccnc2[C@@H]2CNC[C@H]2C1 (relative stereo) [Example 355, 2-[Trans-7,7a,8,9,10,10a-hexahydropyrido[3,2-c]pyrrolo[3,4-e]azepin-6(5H)-ylsulfonyl]benzonitrile]	6000	–	100	90	10	–	–	–	–
Cc1ccc(S(=O)(=O)N2Cc3cccnc3[C@@H]3CNC[C@H]3C2)cc1 (relative stereo) [Example 356, Trans-6-[(4-methylphenyl)sulfonyl]-5,6,7,7a,8,9,10,10a-octahydropyrido[3,2-c]pyrrolo[3,4-e]azepine]	–	–	–	–	–	15	1000	90	40
O=S(=O)(c1ccc(F)cc1)N1Cc2cccnc2[C@@H]2CNC[C@H]2C1 (relative stereo) [Example 357, Trans-6-[(4-fluorophenyl)sulfonyl]-5,6,7,7a,8,9,10,10a-octahydropyrido[3,2-c]pyrrolo[3,4-e]azepine]	–	inactive	–	–	–	–	> 10000	85	100
O=S(=O)(c1cccs1)N1Cc2cccnc2[C@@H]2CNC[C@H]2C1 (relative stereo) [Example 358, Trans-6-(2-thienylsulfonyl)-5,6,7,7a,8,9,10,10a-octahydropyrido[3,2-c]pyrrolo[3,4-e]azepine]	> 10000	inactive	300	–	–	–	–	20	–
O=S(=O)(c1cccc(Cl)c1)N1Cc2cccnc2[C@@H]2CNC[C@H]2C1 (relative stereo) [Example 359, Trans-6-[(3-chlorophenyl)sulfonyl]-5,6,7,7a,8,9,10,10a-octahydropyrido[3,2-c]pyrrolo[3,4-e]azepine]	–	–	–	–	–	30	500	80	100
O=S(=O)(c1ccc(Br)s1)N1Cc2cccnc2[C@@H]2CNC[C@H]2C1 (relative stereo) [Example 360, Trans-6-[(5-bromo-2-thienyl)sulfonyl]-5,6,7,7a,8,9,10,10a-octahydropyrido[3,2-c]pyrrolo[3,4-e]azepine]	–	–	–	–	–	20	300	80	10
O=S(=O)(c1ccccc1F)N1Cc2cccnc2[C@@H]2CNC[C@H]2C1 (relative stereo) [Example 361, Trans-6-[(2-fluorophenyl)sulfonyl]-5,6,7,7a,8,9,10,10a-octahydropyrido[3,2-c]pyrrolo[3,4-e]azepine]	–	–	–	–	–	80	300	80	100
O=S(=O)(c1ccccc1Cl)N1Cc2cccnc2[C@@H]2CNC[C@H]2C1 (relative stereo) [Example 362, Trans-6-[(2-chlorophenyl)sulfonyl]-5,6,7,7a,8,9,10,10a-octahydropyrido[3,2-c]pyrrolo[3,4-e]azepine]	–	–	–	–	–	75	300	80	100
Cc1cc(C)c(S(=O)(=O)N2Cc3cccnc3[C@@H]3CNC[C@H]3C2)c(C)c1 (relative stereo) [Example 363, Trans-6-(mesitylsulfonyl)-5,6,7,7a,8,9,10,10a-octahydropyrido[3,2-c]pyrrolo[3,4-e]azepine]	1000	–	200	65	15	–	–	–	–
O=S(=O)(c1ccccc1OC(F)(F)F)N1Cc2cccnc2[C@@H]2CNC[C@H]2C1 (relative stereo) [Example 364, Trans-6-{[2-(trifluoromethoxy)phenyl]sulfonyl}-5,6,7,7a,8,9,10,10a-octahydropyrido[3,2-c]pyrrolo[3,4-e]azepine]	90	–	100	85	90	–	–	–	–
O=S(=O)(c1ccccc1C(F)(F)F)N1Cc2cccnc2[C@@H]2CNC[C@H]2C1 (relative stereo) [Example 365, Trans-6-{[2-(trifluoromethyl)phenyl]sulfonyl}-5,6,7,7a,8,9,10,10a-octahydropyrido[3,2-c]pyrrolo[3,4-e]azepine]	800	–	500	80	30	–	–	–	–
O=S(=O)(c1cccc(OC(F)(F)F)c1)N1Cc2cccnc2[C@@H]2CNC[C@H]2C1 (relative stereo) [Example 366, Trans-6-{[3-(trifluoromethoxy)phenyl]sulfonyl}-5,6,7,7a,8,9,10,10a-octahydropyrido[3,2-c]pyrrolo[3,4-e]azepine]	200	–	100	85	85	–	–	–	–
CC(O)c1cccc(-c2cccc3c2OCC[C@H]2CNC[C@H]32)c1 (relative stereo) [Example 367, 1-{3-[Trans-2,3,3a,4,5,10b-hexahydro-1H-[1]benzoxepino[4,5-c]pyrrol-7-yl]phenyl}ethanol]	> 10000	inactive	20	90	–	–	–	–	–
c1cncc(-c2cccc3c2OCC[C@H]2CNC[C@H]32)c1 (relative stereo) [Example 368, Trans-7-(pyridin-3-yl)-2,3,3a,4,5,10b-hexahydro-1H-[1]benzoxepino[4,5-c]pyrrole]	–	–	–	–	–	20	1000	90	10
